Laboratory results as given in patent publication US20060287233A1, “Method of use of antagonists of zonulin to prevent the loss of or to regenerate pancreatic cells” (priority 2005, published 2006).
Entries after “also recorded” stand apart in the source; their conditions may differ. Ends that are not written are not given here.

What was measured:
rabbit ileum = test: Tissue resistance (Rt) of rabbit ileum mounted in Ussing chambers
Procedure: Next, rabbit ileum mounted in Ussing chambers as described below, were exposed to 100 μg of FZI/O (SEQ ID NO:15), 100 μg of FZI/1 (SEQ ID NO:29), 1.0 μg of 6×His-ZOT (obtained as described in Example 1 of U.S. patent application Ser. No. 09/127,815, filed Aug. 3, 1998), 1.0 μg of zonulini (obtained as described in Example 3 of U.S. patent application Ser. No. 09/127,815, filed Aug. 3, 1998), or 1.0 μg of zonulinh (obtained as described in Example 3 of U.S. patent application Ser. No. 09/127,815, filed Aug. 3, 1998), alone; or pre-exposed for 20 min to 100 μg of FZI/O or FZI/1, at which time 1.0 μg of 6×His-ZOT, 1.0 μg of zonulini, or 1.0 μg of zonulinh was added. ΔRt was then calculated as Rt=PD/Isc where PD=potential difference and Isc=short circuit current.

BBDP rats = test: Treatment of autoimmune diabetes in BBDP rats, therapy initiated after seroconversion; assay type: in vivo, rat
Procedure: A test group of 52-54 day old diabetes-prone rats were treated with a zonulin antagonist peptide AT1001 (SEQ ID NO:15) while an age matched control group was not treated. The antagonist was administered at this time because at 40 days these rats show an increase in zonulin levels and at 50 days autoimmune antibodies can be detected. Thus, treatment was started after […].
BBDP animals age 52-54 were days divided in two groups. Group 1 (n=20) received AT-1001 daily in drinking water+HCO3. Group 2 (n=10) received drinking water+HCO3. Animals were randomized to receive either placebo or treatment with the synthetic zonulin peptide inhibitor AT-1001 (SEQ ID:15) in their water supply in a blinded fashion during treatment arm T0. At the disease endpoint (fasting blood glucose>250 mg/dl), BBDP rats that developed T1D (60% incidence in placebo group, average age 110 days) were euthanized and blood and tissue samples collected. […] Serum zonulin and autoantibody levels were monitored at the beginning of the study and at its endpoint. Water intake was monitored daily, while weight gain and serum glucose levels were checked weekly. Rats with fasting blood glucose ≧250 mg/dl were considered diabetic and were sacrificed within 24 hours of reaching the diabetic status.

BB/Wor rats = test: Prevention of diabetes in BB/Wor rats, antagonist in drinking water; assay type: in vivo, rat; conditions: 10 μg/ml in drinking water, n=5
Procedure: Both groups were maintained on a standard diet of rat chow (Harlan Teklab Diet #7012). All food and water were previously autoclaved. Each day, daily water intake was measured and 100 ml of fresh water was given. The treated group received 10 μg/ml of the zonulin peptide antagonist (SEQ ID NO: 15) supplemented in the drinking water. The rats were housed in hepa-filter cages.
Diabetes in the rats was diagnosed as follows: The rats were weighed twice a week. Blood glucose was determined weekly using the OneTouch® glucose monitoring system (Johnson & Johnson). Each week, reagent strips for urinalysis were used to monitor glucose (Diastix®) and ketones (Ketositx®) (Bayer). Rats with a blood glucose >250 mg/dl were fasted overnight, and blood glucose levels >200 mg/dl were considered diabetic.
Following clinical presentation of diabetes, the rats were sacrificed as follows: the rats were anesthesized using ketamine anesthesia and a midline incision was made allowing access to the heart. An 18 G needle was placed into the heart and death occurred by exsanguinations. Then, zonulin assays were conducted as described above. […] According to Biomedical Research Models, Inc., 80% of diabetes prone rats present with diabetes by age 80 days.

[1] = test system: pancreatic islets of BBDP rats; test: Histology and immunohistology of pancreata of BBDP rats; assay type: in vivo, rat; conditions: treated rats that did not develop T1D; listed as AT1001
Procedure: Samples of the pancreas were taken from animals that had been treated starting at day […] and examined. The results of the histological examination are shown in FIG. 9 and the results of the immunohistological examination are shown in FIG. 10.
To verify the identities of the cells observed in the histological analysis, immunohistological examination was conducted. Pancreata were sequentially stained with either anti-glucagon antibody, which is specific for glucon-producing […], or with anti-insulin antibodies, which is specific for insulin-producing β-cells. When untreated pancreas is stained with anti-insulin antibodies, no signal is detected. This is consistent with the destruction of β-cells in T1D. Staining of these cells with anti-glucagon antibodies identifies glucagon producing […]. Normal islets have a loaf-shaped structure with the outside of the islet containing […] and the inside of the islet containing β-cells. […] The structure of the islets was more normal as indicated by the staining pattern with anti-glucagon antibodies FIG. 10D.

| Substance | inhibitory effect on the Rt change induced by ZOT, zonulini and zonulinh (rabbit ileum; pre-exposure for 20 min to 100 μg peptide) | animals that developed diabetes under continued treatment (BBDP rats; continued treatment after 120 days, arm T1) | anti-glutamic acid decarboxylase (GAD) antibodies (BBDP rats; following treatment) | average age of onset of T1D (BBDP rats; treated group) [days] | animals that progressed to T1D (BBDP rats; treatment arm T0, in drinking water from age 52-54 days) [%] | rats that developed diabetes (BBDP rats; treatment arm T0, treated group n=20) | progression to T1D (BBDP rats; up to age 205 days (150 days post-treatment)) | animals that developed diabetes after treatment was withdrawn (fraction) (BBDP rats; withdrawal after 120 days) | onset of T1D after withdrawal of treatment (BBDP rats; withdrawal at age 120 days, arm T1) [%] | change in Rt as compared to the negative control (rabbit ileum; 100 μg peptide alone) [%] | decrease of the effect of ZOT on Rt (rabbit ileum; pre-treatment for 20 min with 100 μg peptide, then 1.0 μg 6×His-ZOT) [%] | decrease of the effect of zonulinh on Rt (rabbit ileum; pre-treatment for 20 min with 100 μg peptide, then 1.0 μg zonulinh) [%] | decrease of the effect of zonulini on Rt (rabbit ileum; pre-treatment for 20 min with 100 μg peptide, then 1.0 μg zonulini) [%] | rats that developed diabetes by age 80 days (BB/Wor rats) [%] | treated rats that did not develop diabetes (BB/Wor rats) [%] | pancreas histology (haematoxylin and eosin) [1] | pancreatic islet immunohistology (insulin and glucagon staining) [1] |
| --- | --- | --- | --- | --- | --- | --- | --- | --- | --- | --- | --- | --- | --- | --- | --- | --- | --- |
| FZI/1: second synthetic peptide: Gly in position 8, Val in position 12, Gln in position 13 changed to residues of zonulinb (Val, Gly, Arg) (VGVLGRPG; sythetic peptide) [reference compound] | completely ablated | – | – | – | – | – | – | – | – | – | – | – | – | – | – | – | – |
| GGVLVQPG [FZI/O, synthetic octapeptide corresponding to amino acid residues 8-15 of human fetal zonulin] | – | none | significant reduction | 86.0 ± 10.3 | 35 | 7 of 20 | significantly reduced | ⅓ | 33 | 0.5 | 75 | 100 | 97 | 40 | 60 | evidence of the regeneration of β-cells was observed; also recorded: either normal islet histology or islet showing signs of recovery from insulitis; also recorded: perivascular inflammation without insulitis | preserved islets with detectable insulin-producing beta cells; also recorded: islets that were either undamaged (C and D) or showed signs of recovery from an insulitis insult |
